# Patent US20040133938A1, “Use of lipoic acid in plant culture media” (priority 2002, published 2004)
# System: MicroTom cotyledon explants
# Test: MicroTom Agrobacterium transformation: shoot regeneration, transformation efficiency, escapes
# Type: cell-based, Lycopersicon esculentum
# Conditions: for % of explants producing shoots (>1 cm in length): selection medium; for % of shoots that were escapes (did not root on selection medium): kanamycin selection
# Experimental: This example describes the use of lipoic acid in an Agrobacterium-based tomato transformation process. MicroTom (a cultivar of tomato species: Lycopersicon esculentum) seeds from Tomato Growers (Ball Seed Co., West Chicago, Ill. USA) were surface-sterilized by first soaking for 10 min in sterile deionized water, removing the water, and then adding enough 70% ethanol to immerse the seeds for 1 min while stirring vigorously and then aspirating the ethanol. The seeds were rinsed 2× with sterile deionized water and then soaked in 25% Chlorox with 1-2 drops of Tween 20 for 10 min while stirring frequently. The seeds were rinsed 3× with sterile deionized water. The seeds were germinated in phytatrays containing Davis Germination medium (4.3 g/L MS salts, 2 ml/L Gamborg's B-5 500× salts, 20 g/L sucrose and 10 g/L agar) (approximately 120 seeds/container), and the phytatrays were wrapped with aluminum foil. The phytatray cultures were maintained at 28° C. under the dark for 5 days. After 5 days, the phytatray cultures were unwrapped and grown at 24° C. under a 16 h photoperiod for about 44 h.
# Agrobacterium containing the desired transformation vector with a selectable marker (nptII for kanamycin selection as shown in FIG. 1) was streaked on a fresh LBssck plate (LB, 200 mL; spectinomycin (50 mg/mL stock), 200 μL; streptomycin (50 mg/mL stock), 200 μL; kanamycin (50 mg/mL stock), 200 μL; chloramphenicol (CAP, 25 mg/mL stock), 200 μL) from a frozen glycerol stock, and grown at about 28° C. for 3-4 days. One day before inoculation, a loopful of the bacterium cells from the freshly streaked plate was inoculated into 2 mL of LB+(LB, 200 mL; spectinomycin or streptomycin (50 mg/mL stock), 400 μL; kanamycin (50 mg/mL stock), 200 μL; chloramphenicol (CAP, 25 mg/mL stock), 200 μL) without acetosyringone, and grown at about 28° C. on a rotator at the speed between medium to high overnight. Then, 0.2 mL of the overnight bacterium culture was inoculated into 2 mL of LB+0.2 mM acetosyringone, and grown at about 28° C. on a rotator at the speed between medium to high for 4 hours.
# Four hours after the sub-culture, the bacterium growth phase was measured using the spectrophotometer. The final O.D.660 of the bacterium culture was between about 0.9 and 1.4. The bacterium culture was diluted by adding the bacterium culture to TXD medium in a sterile tube based on the volume to get the working O.D.660=0.1.
# Cotyledon explants were isolated from seedlings 7 days after sowing seeds on Davis Germination medium. Cotyledon explants were prepared by bathing them in 6 mL of TXD liquid medium (4.3 g/L MS salts, 2 mL/L Gamborg's B-5 500× salts, 4 mg/L pCPA (p-chlorophenoxyactic acid), 0.005 mg/L kinetin, and 30 g/L sucrose) to prevent desiccation and trimming them at both ends using a #15 feather blade. Immediately after the trimming, the cotyledon explants were gently placed on “feeder plates” containing UC2PC medium (2.2 g/L MS salts, 2.2 mL/L, Gamborg's B-5 500× salts, 0.2 mg/L 2,4-D, 4 mg/L pCPA, 0.1 mg/L kinetin, 30 g/L sucrose, 0.2 g/L potassium phosphate, 10 g/L agar, 8 mL/L acetosyringone (4.91 mg/mL), and 4 mL galacturonic acid (53.05 mg/mL)). The “feeder plates” are made by overlaying 2 mL of tobacco suspension cells and a sterile Whatman filter on the plates containing UC2PC medium. The cotyledon explants were gently poked with a sharp forceps (ASIM5311, Stainless French, made in Switzerland). Usually six to ten pokes were made per explant depending the size of cotyledons. Right after poking, the cotyledons were inoculated with Agrobacterium containing pMON15715 (FIG. 1) by adding 3 mL of the adjusted Agrobacterium solution on top of the cotyledons. The plates were incubated for 10 min at room temperature, and the Agrobacterium solution was aspirated with a sterile pipette. The cotyledons were then co-cultured for 2 days at 23-24° C. under a 16-h photoperiod. […]
smiles,measurement,setting,value
"O=C(O)CCCCC1CCSS1 (stereo not drawn) [lipoic acid, 1,2-dithiolane-3-pentanoic acid]",% of explants producing shoots (>1 cm in length),"5 μM lipoic acid, 45 explants",68.9%
same,% of resp. explant producing transgenic plants,"5 μM lipoic acid, MicroTom",78.6%
same,% of transgenic plants/shoot,"5 μM lipoic acid, MicroTom",43.9%
same,"Efficiency (stable transformation efficiency, percentage of transgenic plants produced per explant)","5 μM lipoic acid, MicroTom",155.1%
same,No. of total shoots produced/explant,"5 μM lipoic acid, MicroTom",3.53
same,No. of total shoots produced/resp. explant,"5 μM lipoic acid, MicroTom",4.93
same,No. of transgenic plants produced/resp. explant,"5 μM lipoic acid, MicroTom",2.25
same,TE (percentage of transgenic events produced per explant),"5 μM lipoic acid, MicroTom",78.3%
same,% of shoots that were escapes (did not root on selection medium),5 μM lipoic acid,54.6%
same,% of explants producing shoots (>1 cm in length),"10 μM lipoic acid, 46 explants",67.4%
same,% of resp. explant producing transgenic plants,"10 μM lipoic acid, MicroTom",74.2%
same,% of transgenic plants/shoot,"10 μM lipoic acid, MicroTom",42.9%
same,"Efficiency (stable transformation efficiency, percentage of transgenic plants produced per explant)","10 μM lipoic acid, MicroTom",178.7%
same,No. of total shoots produced/explant,"10 μM lipoic acid, MicroTom",4.17
same,No. of total shoots produced/resp. explant,"10 μM lipoic acid, MicroTom",6.19
same,No. of transgenic plants produced/resp. explant,"10 μM lipoic acid, MicroTom",2.65
same,TE (percentage of transgenic events produced per explant),"10 μM lipoic acid, MicroTom",94.1%
same,% of shoots that were escapes (did not root on selection medium),10 μM lipoic acid,58.3%
same,% of explants producing shoots (>1 cm in length),"50 μM lipoic acid, 49 explants",61.2%
same,% of resp. explant producing transgenic plants,"50 μM lipoic acid, MicroTom",67.9%
same,% of transgenic plants/shoot,"50 μM lipoic acid, MicroTom",48.0%
same,"Efficiency (stable transformation efficiency, percentage of transgenic plants produced per explant)","50 μM lipoic acid, MicroTom",144.1%
same,No. of total shoots produced/explant,"50 μM lipoic acid, MicroTom",3.00
same,No. of total shoots produced/resp. explant,"50 μM lipoic acid, MicroTom",4.83
same,No. of transgenic plants produced/resp. explant,"50 μM lipoic acid, MicroTom",2.35
same,TE (percentage of transgenic events produced per explant),"50 μM lipoic acid, MicroTom",76.4%
same,% of shoots that were escapes (did not root on selection medium),50 μM lipoic acid,55.4%
same,% of explants producing shoots (>1 cm in length),"100 μM lipoic acid, 43 explants",25.6%
same,% of resp. explant producing transgenic plants,"100 μM lipoic acid, MicroTom",93.8%
same,% of transgenic plants/shoot,"100 μM lipoic acid, MicroTom",50.6%
same,"Efficiency (stable transformation efficiency, percentage of transgenic plants produced per explant)","100 μM lipoic acid, MicroTom",112.1%
same,No. of total shoots produced/explant,"100 μM lipoic acid, MicroTom",2.21
same,No. of total shoots produced/resp. explant,"100 μM lipoic acid, MicroTom",8.64
same,No. of transgenic plants produced/resp. explant,"100 μM lipoic acid, MicroTom",4.38
same,TE (percentage of transgenic events produced per explant),"100 μM lipoic acid, MicroTom",49.7%
same,% of shoots that were escapes (did not root on selection medium),100 μM lipoic acid,57.1%
same,effect on total transgenic and non-transgenic shoot induction,lipoic acid from 5 μM to 50 μM,no inhibition effect
same,increase of the stable transformation efficiency,"summary, MicroTom, from 40%",6.5 fold
same,stable transformation efficiency,"summary, MicroTom, with lipoic acid",up to 260%
